Tests used:
[1] = test system: human peripheral blood mononuclear (PBM) cells; assay: Cytotoxicity, CellTiter 96 cell proliferation assay, PBM cells; type: cell-based; conditions: read-out: Cytotoxicity, CC50 PBM; PBM cells
[2] = test system: human hepatocellular carcinoma (HepG2) cells; assay: Cytotoxicity, CellTiter 96 cell proliferation assay, HepG2 cells; type: cell-based; conditions: read-out: Cytotoxicity, CC50 HepG2; HepG2 cells
[3] = test system: HBV DNA production in HepAD38 cells; assay: Anti-HBV activity; type: cell-based, Hepatitis B virus (HBV); conditions: for times less potent than GLP-26: HepAD38 vs GLP-26; for EC50: read-out: Anti-HBV activity EC50; for EC50 / EC90: HBV DNA production, HepAD38 cells; for EC90: read-out: Anti-HBV activity EC90
[4] = test system: human T lymphoblast (CEM) cells; assay: Cytotoxicity, CellTiter 96 cell proliferation assay, CEM cells; type: cell-based; conditions: read-out: Cytotoxicity, CC50 CEM; CEM cells
[5] = test system: African green monkey kidney (Vero) cells; assay: Cytotoxicity, CellTiter 96 cell proliferation assay, Vero cells; type: cell-based; conditions: read-out: Cytotoxicity, CC50 Vero; Vero cells
[6] = target: Cp149 dimers (Hepatitis B virus genotype D subtype ayw, UniProt P03146)
Sequence of Cp149 dimers (P03146 1-149): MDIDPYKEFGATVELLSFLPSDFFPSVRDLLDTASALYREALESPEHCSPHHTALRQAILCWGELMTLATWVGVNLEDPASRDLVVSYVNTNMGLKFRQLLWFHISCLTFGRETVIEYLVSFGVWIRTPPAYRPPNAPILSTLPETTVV

Row | SMILES | CC50 [1] | CC50 [2] | times less potent than GLP-26 [3] | EC50 [3] | EC90 [3] | CC50 [4] | CC50 [5] | Subunit binding energies −Δg [6] | Rgw (mean radius of gyration, plateau) ([6]; ρ = 3, 30 μM subunits, 200 mM ammonium acetate, 37°C, ρ = 0: 176 ± 6 Å) | 〈N〉w∞ (mean aggregation number at equilibrium) ([6]; ρ = 3, 30 μM subunits, 200 mM ammonium acetate, ρ = 0: 156 ± 6) | Associated timescale of Rgw ([6]; ρ = 3, 30 μM subunits, 200 mM ammonium acetate, ρ = 0: 237 ± 62 ms) | Associated timescale of 〈N〉w ([6]; ρ = 3, 30 μM subunits, 200 mM ammonium acetate, ρ = 0: 699 ± 138 ms) | times more potent than reference compound GLP-26 ([3]; HepAD38 EC50 vs GLP-26)
1 | Cc1c(C(=O)C(=O)NCc2cn(CCCCCCCCCCCCCCCCn3cc(CNC(=O)C(=O)c4c(C)c(C(=O)Nc5ccc(F)c(F)c5)n(C)c4C)nn3)nn2)c(C)n(C)c1C(=O)Nc1ccc(F)c(F)c1 [Compound 6f, 4,4’-(2,2’-(((Hexadecane-1,16-diylbis(1H-1,2,3-triazole-1,4-diyl))bis(methylene))bis(azanediyl))bis(2-oxoacetyl))bis(N-(3,4-difluorophenyl)-1,3,5-trimethyl-1H-pyrrole-2-carboxamide)] | > 100 µM | > 100 µM | 2–3 times | 0.018 ± 0.011 µM | 0.13 ± 0.06 µM | > 100 µM | > 100 µM | – | – | – | – | – | –
2 | Cc1cc(NC(=O)c2cccc(S(=O)(=O)N[C@H]3CCOC3)c2)ccc1F [JNJ-632] | – | – | – | – | – | – | – | 15.8 kT | 176 ± 0.5 Å | 150 ± 4 | 100 ± 24 ms | 273 ± 46 ms | –
3 | Cc1c(C(=O)C(=O)NCc2cn(CCCCCCCCCCCCCCCCCCn3cc(CNC(=O)C(=O)c4c(C)c(C(=O)Nc5ccc(F)c(F)c5)n(C)c4C)nn3)nn2)c(C)n(C)c1C(=O)Nc1ccc(F)c(F)c1 [Compound 6g, 4,4’-(2,2’-(((Octadecane-1,18-diylbis(1H-1,2,3-triazole-1,4-diyl))bis(methylene))bis(azanediyl))bis(2-oxoacetyl))bis(N-(3,4-difluorophenyl)-1,3,5-trimethyl-1H-pyrrole-2-carboxamide)] | > 100 µM | > 100 µM | 2–3 times | 0.025 ± 0.024 µM | 0.38 ± 0.01 µM | > 100 µM | > 100 µM | – | – | – | – | – | –
4 | Cc1c(C(=O)C(=O)NCc2cn(CCCCCCn3cc(CNC(=O)C(=O)c4c(C)c(C(=O)Nc5ccc(F)c(F)c5)n(C)c4C)nn3)nn2)c(C)n(C)c1C(=O)Nc1ccc(F)c(F)c1 [Compound 6a, 4,4’-(2,2’-(((Hexane-1,6-diylbis(1H-1,2,3-triazole-1,4-diyl))bis(methylene))bis(azanediyl))bis(2-oxoacetyl))bis(N-(3,4-difluorophenyl)-1,3,5-trimethyl-1H-pyrrole-2-carboxamide)] | > 100 µM | > 100 µM | – | 0.285 ± 0.021 µM | > 10 µM | > 100 µM | > 100 µM | – | – | – | – | – | –
5 | Cc1c(C(=O)C(=O)NCc2cn(CCCCCCCCCCCCn3cc(CNC(=O)C(=O)c4c(C)c(C(=O)Nc5ccc(F)c(F)c5)n(C)c4C)nn3)nn2)c(C)n(C)c1C(=O)Nc1ccc(F)c(F)c1 [Compound 6d, 4,4’-(2,2’-(((Dodecane-1,12-diylbis(1H-1,2,3-triazole-1,4-diyl))bis (methylene))bis(azanediyl))bis(2-oxoacetyl))bis(N-(3,4-difluorophenyl)-1,3,5-trimethyl-1H-pyrrole-2-carboxamide)] | 63.4 ± 40.6 µM | > 100 µM | – | 0.0001 µM | 0.008 ± 0.001 µM | 42.8 ± 0.6 µM | > 100 µM | – | – | – | – | – | 80 times
6 | Cc1c(C(=O)C(=O)NCc2cn(CCCCCCCCCCn3cc(CNC(=O)C(=O)c4c(C)c(C(=O)Nc5ccc(F)c(F)c5)n(C)c4C)nn3)nn2)c(C)n(C)c1C(=O)Nc1ccc(F)c(F)c1 [Compound 6c, 4,4’-(2,2’-(((Decane-1,10-diylbis(1H-1,2,3-triazole-1,4-diyl))bis(methylene))bis(azanediyl))bis (2-oxoacetyl))bis(N-(3,4-difluorophenyl)-1,3,5-trimethyl-1H-pyrrole-2-carboxamide)] | > 100 µM | > 100 µM | – | 0.004 ± 0.001 µM | 0.14 ± 0.11 µM | > 100 µM | > 100 µM | – | – | – | – | – | –
